# Experimental data from US20160045487A1, “COMPOSITIONS AND METHODS FOR TREATING NEUROPATHY” (CHILDEREN'S MEDICAL CENTER CORPORATION, priority 2013, published 2016).
# Key:
# [1] = system: GFAP-DN-erbB4 mice; assay: PGP9.5-positive IENF density in hind paw skin; type: in vivo, mouse; details: treatment initiated after disease onset (P28), read at P35
# Experimental: However, in the clinic, therapy would almost certainly begin after patients present with symptoms of SFN. Therefore, it was determined whether topical XIB4035 can act as a disease-modifying agent in the GFAP-DN-erbB4 neuropathy model starting after animals are clearly symptomatic (P28). […] While IB4 labeling in mutant mice was lower than wild types regardless of treatment, IB4 signal was clearly present in mutant mice treated with XIB4035 while absent in those treated with control cream (FIG. 3D; 83% of XIB4035 treated mice (n=6) with IB4+ lamina II terminals vs 0% (n=4) in control treated mice) (FIG. 3D).
# Mice were anesthetized with 2.5% Avertin. Hind paws were removed, immersion fixed in 2% paraformaldehyde, 14% picric acid in 0.1 M phosphate buffer (pH 7.4) overnight at 4° C., and cryoprotected in 20% sucrose overnight at 4° C. Footpad skin was dissected from hind paws, embedded in OCT, sectioned at 30 μm, and stained as floating sections. […]
# Skin section images were acquired as 30 μm Z-stacks (1 μm intervals) and processed as maximum intensity projections using a Zeiss LSM 700 microscope and ZEN software. […] A measured line was drawn using the DAPI channel to delineate the border between basal keratinocytes and outer layers of the epidermis. All PGP9.5 positive IENFs crossing the border were counted and expressed as a number per 100 μm length. […]
# [2] = system: GFRα/RET receptor signaling; assay: Tyrosine hydroxylase promoter luciferase reporter assay in SH-SY5Y-THpGL3 cells; type: cell-based, human; details: for effect in the TH-luciferase assay: XIB4035 alone
# Text: One goal of these studies was to determine if XIB4035 could be used for treating SFN in humans. Using the Neuro2A (N2A) murine neuroblastoma cell line, Tokugawa et al. (supra) reported XIB4035 as a competitive agonist for the GDNF receptor GFRα1 that activates the RET receptor. Since populations of DRG sensory neurons express different GFRα receptors, thus making them preferentially responsive to the particular ligands, it was important to determine if XIB4035 was specific to GFRα1 or could act on other family members. Since PSPN has no effect on peripheral sensory neurons, the GFRα1, GFRα2, and GFRα3 receptors were the focus of these studies. The SH-SY5Y, a human neuroblastoma cell line expressing mRNA for GFRα1, GFRα2, and GFRα3, was used to perform two cell-based assays; immunoblots measuring RET phosphorylation and a luciferase reporter assay using the tyrosine hydroxylase (TH) promoter. For the latter two paradigms were used, either overnight treatment immediately followed by luciferase activity measurements or 10 minute treatments followed by washout and overnight incubation prior to measurements. GDNF and ARTN induced robust TH-luciferase activity in a dose dependent manner (FIG. 3E). Because the responses to GDNF and ARTN were more robust, these two factors were chosen for further analysis.
# The tyrosine hydroxylase promoter was cloned into the pGL3 basic vector (Promega, Madison, Wis., USA) at the Mlu I and Hind III sites, as previously described (Zwick, supra) (TH-pGL3). Briefly, a 2 Kb promoter region upstream from the transcription initiation site of the rat TH gene was cloned from genomic DNA using the primer sequences, […] and […]. SH-SY5Y cells were co-transfected with the TH-pGL3 and the pBabe-puromycin expression vectors at a molar ratio of 10:1. Cells were selected for stable puromycin resistance at a final concentration of 0.5 μg/ml of puromycin-dihydrochloride. Stable colonies were selected and tested for TH-directed luciferase response to GDNF family ligand stimulation. One stable clone, SH-SY5Y-THpGL3, with good signal-to-noise ratio was selected for use in the experiments.
# SH-SY5Y-THpGL3 cells were maintained in DMEM/F12, 5% FBS, and 1% penicillin/streptomycin and plated on collagen coated plates (4 μg/ml). Neuro-2A cells were grown in MEM, 5% FBS, and 1% penicillin/streptomycin. BE(2)-C cells were grown in DMEM/F12 media containing 5% FBS and 1% penicillin/streptomycin. PC-12 cells were maintained in media containing RPMI-1640, 10% horse serum, 5% FBS, and 1% penicillin/streptomycin on collagen coated plates. For luciferase assays, cells were treated for either 10 minutes with washout or overnight with various molecules and assayed for firefly luciferase 16-24 hours post-treatment using the luciferase assay system (Promega, Madison, Wis., USA).
# [3] = target: T1, ErbB2/ErbB3 (Rattus norvegicus, UniProt P06494+Q62799); assay: NRG1-dependent activation of ErbB2/ErbB3 in L6 muscle cells; type: cell-based
# T1 construct: endogenous in cells; host or cells: L6 muscle cells
# T1 sequence (P06494 23-1257): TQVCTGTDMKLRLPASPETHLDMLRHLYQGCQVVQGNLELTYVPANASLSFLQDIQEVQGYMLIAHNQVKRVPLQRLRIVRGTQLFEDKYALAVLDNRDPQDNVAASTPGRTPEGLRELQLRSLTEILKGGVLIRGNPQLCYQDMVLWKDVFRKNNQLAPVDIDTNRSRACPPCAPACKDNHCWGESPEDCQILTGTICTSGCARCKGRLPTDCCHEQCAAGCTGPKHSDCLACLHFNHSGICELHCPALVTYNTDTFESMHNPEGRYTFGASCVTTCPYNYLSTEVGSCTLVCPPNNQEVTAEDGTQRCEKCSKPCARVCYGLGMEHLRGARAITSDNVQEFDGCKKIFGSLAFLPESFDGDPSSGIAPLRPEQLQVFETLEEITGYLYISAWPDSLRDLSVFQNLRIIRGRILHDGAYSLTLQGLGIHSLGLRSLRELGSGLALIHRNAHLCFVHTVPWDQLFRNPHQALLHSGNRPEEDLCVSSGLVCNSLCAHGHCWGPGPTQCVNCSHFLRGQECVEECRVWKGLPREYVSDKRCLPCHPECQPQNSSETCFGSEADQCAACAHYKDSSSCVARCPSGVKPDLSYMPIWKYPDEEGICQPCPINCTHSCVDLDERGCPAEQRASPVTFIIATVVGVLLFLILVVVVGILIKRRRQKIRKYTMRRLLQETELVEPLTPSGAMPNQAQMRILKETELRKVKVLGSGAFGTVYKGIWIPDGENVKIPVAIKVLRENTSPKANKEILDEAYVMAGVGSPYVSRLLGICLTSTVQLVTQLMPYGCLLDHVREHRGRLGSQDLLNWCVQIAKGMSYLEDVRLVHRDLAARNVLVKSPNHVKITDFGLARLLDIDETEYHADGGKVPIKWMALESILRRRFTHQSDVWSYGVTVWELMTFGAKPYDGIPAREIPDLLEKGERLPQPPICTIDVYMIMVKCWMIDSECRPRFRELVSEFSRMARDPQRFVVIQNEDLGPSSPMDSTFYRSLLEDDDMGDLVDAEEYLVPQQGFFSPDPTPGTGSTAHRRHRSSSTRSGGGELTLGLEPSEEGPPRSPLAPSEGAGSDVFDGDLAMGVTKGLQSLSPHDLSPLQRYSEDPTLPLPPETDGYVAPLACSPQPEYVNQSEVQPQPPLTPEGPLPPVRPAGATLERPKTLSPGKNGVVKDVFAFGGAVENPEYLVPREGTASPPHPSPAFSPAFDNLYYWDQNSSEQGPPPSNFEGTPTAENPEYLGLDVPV
# T1 sequence (Q62799 20-1339): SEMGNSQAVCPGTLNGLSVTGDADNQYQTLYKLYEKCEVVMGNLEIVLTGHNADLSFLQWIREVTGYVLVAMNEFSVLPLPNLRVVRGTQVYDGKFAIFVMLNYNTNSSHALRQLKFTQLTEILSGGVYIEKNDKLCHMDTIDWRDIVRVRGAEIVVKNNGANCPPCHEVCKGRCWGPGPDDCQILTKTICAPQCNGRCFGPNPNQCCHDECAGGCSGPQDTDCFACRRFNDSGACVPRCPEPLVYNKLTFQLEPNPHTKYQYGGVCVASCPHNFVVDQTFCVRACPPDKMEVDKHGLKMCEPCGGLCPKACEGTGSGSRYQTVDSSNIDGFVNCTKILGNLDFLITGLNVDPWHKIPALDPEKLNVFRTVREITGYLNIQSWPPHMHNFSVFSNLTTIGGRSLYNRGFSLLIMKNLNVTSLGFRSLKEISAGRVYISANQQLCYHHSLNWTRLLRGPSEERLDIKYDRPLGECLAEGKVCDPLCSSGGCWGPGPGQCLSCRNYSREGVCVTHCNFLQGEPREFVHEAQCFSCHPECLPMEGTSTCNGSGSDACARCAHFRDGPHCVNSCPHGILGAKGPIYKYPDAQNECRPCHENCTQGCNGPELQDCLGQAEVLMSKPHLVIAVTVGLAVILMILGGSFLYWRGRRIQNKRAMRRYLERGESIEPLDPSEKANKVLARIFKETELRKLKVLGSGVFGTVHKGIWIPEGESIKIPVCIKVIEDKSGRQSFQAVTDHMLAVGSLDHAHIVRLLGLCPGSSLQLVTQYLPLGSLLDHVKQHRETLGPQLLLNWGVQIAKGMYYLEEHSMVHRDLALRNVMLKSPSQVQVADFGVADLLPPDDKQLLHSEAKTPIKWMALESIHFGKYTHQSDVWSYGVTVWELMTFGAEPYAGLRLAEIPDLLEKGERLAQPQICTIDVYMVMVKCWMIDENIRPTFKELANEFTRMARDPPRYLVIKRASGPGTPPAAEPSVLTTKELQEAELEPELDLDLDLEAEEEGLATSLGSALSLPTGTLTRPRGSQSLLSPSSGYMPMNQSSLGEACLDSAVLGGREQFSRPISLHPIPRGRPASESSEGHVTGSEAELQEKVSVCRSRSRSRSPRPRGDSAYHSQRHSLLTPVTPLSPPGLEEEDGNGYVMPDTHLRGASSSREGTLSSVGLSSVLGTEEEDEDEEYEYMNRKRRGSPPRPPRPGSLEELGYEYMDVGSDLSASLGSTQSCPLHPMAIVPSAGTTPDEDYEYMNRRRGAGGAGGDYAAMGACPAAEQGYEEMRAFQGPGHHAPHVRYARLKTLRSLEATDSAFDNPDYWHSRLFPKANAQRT
structure (smiles),measurement,setting,value
"CCN(CC)CCCC(C)Nc1cc(/C=C/c2ccccc2Cl)nc2cc(Cl)ccc12 (stereo not drawn) [XIB4035, N4-{7-chloro-2-[(E)-2-(2-chloro-phenyl)-vinyl]-quinolin-4-yl}-N1,N1-diethyl-pentane-1,4-diamine]",IENF density in hind paw skin,[1],did not rescue IENF density
same,"maximal effect, luciferase activity",[2]; 18 nM ARTN + 20 μM XIB4035,3.61±0.47 fold over control
same,"maximal effect, luciferase activity",[2]; 18 nM GDNF + 20 μM XIB4035,3.41±0.41 fold over control
same,minimal ARTN dose necessary to induce luciferase activity above control,"[2]; ARTN + 20 μM XIB4035, 10 minutes, washout, overnight",2.7 pM
same,minimal GDNF dose necessary to induce luciferase activity above control,"[2]; GDNF + 20 μM XIB4035, 10 minutes, washout, overnight",2.7 pM
same,effect in the TH-luciferase assay,"[2]; 10 minute treatment, 1-15 μM, washout, overnight incubation",no effect
same,effect in the TH-luciferase assay,"[2]; overnight treatment, 6.25-500 nM",no effect
same,effect on ligand-induced TH-luciferase activity,[2]; co-treatment with either GDNF or ARTN over a range of doses,significantly potentiates
same,NRG1-dependent activation of ErbB2/ErbB3,[3],did not influence
